We go through 1 compound from patent US20220104481A1, “CRYOPRESERVATION OF STEM CELLS” (TiGenix, S.A.U., priority 2019, published 2022).

Holding throughout (type): cell-based, human
Assay [1] deals with mature dendritic cells (mDC). The assay is described as follows: Phagocytosis of Staphylococcus aureus particles by mDC co-cultured with ASCs. The following applies: NAC-pretreated ASCs, non-contact co-culture (FIG. 12). As to the method:
After differentiation in monoculture or co-culture in vitro (the differentiation conditions, including the cytokines used, concentrations and times of differentiation, are provided in Example 7), macrophages and mDC were harvested using 0.05% Trypsin-EDTA for 10 minutes at 37° C. The phagocytic potential of polarized macrophages or mDC was assessed using pHRodo Red-conjugated S. aureus particles (Life Technologies #A10010) following manufacturer's instructions. Briefly, 50,000 mDC were transferred to a 96-well U bottom wells (Corning #3799) and the cells were rested for 60 minutes in RPMIc. Lyophilized pHRodo conjugated particles were reconstituted in 1 mL of RPMIc per vial prior to use, and particles were sonicated for 5 minutes at 20% amplitude. Then, 50 μL of pHRodo […] were added per well and the cells were incubated for 60 minutes in normoxia at 37° C. Afterwards, phagocytosis was stopped on ice and cells were washed and stained with 5 μL 7-aminoactinomycin D (7AAD) prior to FACS analysis in Fortessa cytometer (BD). Negative controls for phagocytosis were cells without pHRodo reagent. Results were analysed in FlowJo software. The intensity of the fluorescence in the PE channel is proportional to the amount of bacterial particles phagocytosed per cell.

Assay [2] relates to CD206 and CD163 on mature dendritic cells. The assay is described as follows: Surface expression of phagocytic receptors CD206 and CD163 by mDC co-cultured with ASCs (flow cytometry). The following applies: NAC-pretreated ASCs, donors A and B (FIGS. 13, 14). As to the method:
After differentiation in monoculture or co-culture in vitro (the differentiation conditions, including the cytokines used, concentrations and times of differentiation, are provided in Example 7), macrophages and mDC were harvested using 0.05% trypsin-EDTA for 10 minutes at 37° C., after supernatants were collected and frozen for future cytokine and/or HPLC analysis. After mDC were counted, they were distributed into 96-well V bottom plates for staining (Nunc #249570). Cells were incubated in Blue MACS buffer with 1% human serum for 15 minutes on ice, to block Fcγ receptor-mediated nonspecific antibody binding. Subsequently, cells were stained for 20 minutes on ice with the following antibody mixes (staining in 50 μL of 1:10 antibody dilution; except for CD64, which was 1:20 dilution): Cell viability was assessed by addition of 5 μL of 7AAD per well and staining for 10 minutes on ice, and samples were acquired in a BD Fortessa cytometer. Results were analysed in FSC Express software.

A further assay has as its system ASCs. The assay is described as follows: ASC proliferation assay: viable cell density (trypan blue count) after thaw of pretreated ASCs. The following applies: for number of viable cells: ASCs pretreated with 6 mM NAC before freezing. As to the method:
ASCs from donor A were thawed by warming the vials in a 37° C. bath and diluting the freezing medium containing DMSO with fresh complete DMEM (DMEM/F-12 media—GlutaMAX™-I, Gibco, supplemented with 100 μg/mL penicillin/streptomycin and 10% FBS). Cells were centrifuged at 450 g for 6 minutes at room temperature to eliminate leftover DMSO and plated in T-175 flasks at 20.000 cells/cm^2 in complete DMEM. 24 hours post-thaw, the cells were treated with the suitable concentrations of the compounds indicated in the table below for 24 hours: Following the pretreatment step, the medium was removed, the cells were washed with PBS and trypsinized using trypsin-EDTA 0.25% (ThermoFisher) for 8 minutes at 37° C. After trypsin inactivation with complete DMEM, cells were harvested and centrifuged prior to resuspension in freezing medium (FBS with 10% DMSO), and frozen into 500,000 or 1 million cells per vial and stored in liquid nitrogen for further use. Specifically, the cells were frozen at −80° C. for 24 hours in a Cool Cell® device (BioCision) and then transferred to a liquid nitrogen storage container. All experiments were performed in incubators and 37° C., 5% CO2. ASCs pretreated with NAC according to the methods described in Example 2 from donor A or donor B final drug substance (FDS) were thawed by warming the vials in a 37° C. bath and quickly diluting the freezing medium containing DMSO (FBS with 10% DMSO) with fresh complete DMEM. Cells were centrifuged at 450 g for 6 minutes at room temperature to eliminate leftover DMSO, and plated in P6-well plates (Falcon #353046) in triplicates at […] in 5 mL of complete DMEM per well. Cells were washed with 1×PBS and trypsinized using trypsin-EDTA 0.25% (ThermoFisher) for 8 minutes at 37° C. After trypsin inactivation using complete DMEM, cells were harvested, centrifuged and resuspended in fresh DMEM; triplicate wells were unified as a single sample for counting purposes. Cells were counted in triplicates at 24 hours, 96 hours and 7 days after plating using an Invitrogen Countess Automated Cell Counter (Invitrogen) and adding trypan blue as a viability stain (FIG. 4A). The calculation of cell density was done using the count of viable ASC (negative for trypan blue) per surface unit (cm^2).

“Also recorded” adds a separate entry of the source.

For the compound `CC(=O)N[C@@H](CS)C(=O)O` [NAC, N-Acetylcysteine], the “ability of ASCs to increase phagocytosis potential of mDCs” value in assay [1] was “did not alter their ability to increase the phagocytosis potential of mDCs”. Further, the “ASC-mediated upregulation of CD206 and CD163 on mDC” value in assay [2] is on record as “this upregulation was intact; also recorded: did not alter these effects”. In the assay with ASCs (6 mM NAC pretreatment, 24 hours and 4 days post-thaw), the “number of cells counted versus non-treated control” value is “increased the number of cells counted at 24 hours and 4 days”. In addition, the “cell number by cell density versus non-treated” value in the assay with ASCs (6 mM NAC pretreatment, 24 hours post-seeding after thaw (FIG. 3)) was “increased cell numbers”. For the same compound, the “cell numbers versus non-treated, two donors” value in the assay on ASCs (6 mM NAC pretreatment, donor A and donor B, from 24 hours post-seeding, maintained for a week (FIG. 5)) was “increase in cell numbers”. In addition, the “post-thaw recovery (viable adhered cell number over seeding density)” value in the assay with ASCs (ASCs pretreated with 6 mM NAC (FIG. 4A), non-treated cells not recovered at 1 day) is listed as “recovered after 1 day of post-thaw culture”. The entries for the “number of viable cells” value in the assay with ASCs (1 day of culture post-thaw (FIG. 4A)) and with ASCs (4 days of culture post-thaw (FIG. 4A)) were ~5,000 cells/cm^2 and ~12,500 cells/cm^2, respectively. The “improvement of growth rate relative to non-treated cells” value with ASCs (ASCs pretreated with 6 mM NAC, between days 1 and 4 of post-thaw culture) is on record as “about 1.25 fold”. Further, the growth rate result in the assay on ASCs (ASCs pretreated with 6 mM NAC, between days 1 and 4 of post-thaw culture (FIG. 4A)) is on record as “approximately 2500 cells/cm^2/day”.
